Measured values as given in ChEMBL document CHEMBL4823311, “Optimization of Naphthyridones into Selective TATA-Binding Protein Associated Factor 1 (TAF1) Bromodomain Inhibitors” (ACS Med Chem Lett, 2021).
Converted amounts (≈) assume the structure as drawn.

How the values were obtained:
[1] = target: T1, Transcription initiation factor TFIID subunit 1 (Homo sapiens, UniProt P21675); experiment: Inhibition of TAF1 bromodomain 2 (unknown origin) by TR-FRET assay
[2] = Lipophilicity, logD of the compound at pH 7.4 by chromatographic method; format: physicochemical; settings: buffer
[3] = target: T2, Bromodomain-containing protein 4 (Homo sapiens, UniProt O60885); experiment: Inhibition of BRD4 BD1 (unknown origin) by TR-FRET assay
[4] = Passive permeability of the compound across artificial membrane by AMP assay; format: ADME; settings: PAMPA; read-out: permeability
[5] = target: T1, Transcription initiation factor TFIID subunit 1; experiment: Inhibition of human partial length TAF1 bromodomain 2 (D1521 to D1656 residues) expressed in bacterial expression system by BROMOscan assay
[6] = target: T2, Bromodomain-containing protein 4; experiment: Inhibition of human partial length BRD4 BD1 (N44 to E168 residues) expressed in bacterial expression system by BROMOscan assay
[7] = Intrinsic clearance in human microsomes; format: ADME, Microsome
[8] = target: T2, Bromodomain-containing protein 4; experiment: Inhibition of human partial length BRD4 BD2 (K333 to E460 residues) expressed in bacterial expression system by BROMOscan assay
[9] = target: T3, Bromodomain-containing protein 9 (Homo sapiens, UniProt Q9H8M2); experiment: Inhibition of human partial length BRD9 (R130 to V259 residues) expressed in bacterial expression system measured by BROMOscan assay
T3 sequence (Q9H8M2 whole entry): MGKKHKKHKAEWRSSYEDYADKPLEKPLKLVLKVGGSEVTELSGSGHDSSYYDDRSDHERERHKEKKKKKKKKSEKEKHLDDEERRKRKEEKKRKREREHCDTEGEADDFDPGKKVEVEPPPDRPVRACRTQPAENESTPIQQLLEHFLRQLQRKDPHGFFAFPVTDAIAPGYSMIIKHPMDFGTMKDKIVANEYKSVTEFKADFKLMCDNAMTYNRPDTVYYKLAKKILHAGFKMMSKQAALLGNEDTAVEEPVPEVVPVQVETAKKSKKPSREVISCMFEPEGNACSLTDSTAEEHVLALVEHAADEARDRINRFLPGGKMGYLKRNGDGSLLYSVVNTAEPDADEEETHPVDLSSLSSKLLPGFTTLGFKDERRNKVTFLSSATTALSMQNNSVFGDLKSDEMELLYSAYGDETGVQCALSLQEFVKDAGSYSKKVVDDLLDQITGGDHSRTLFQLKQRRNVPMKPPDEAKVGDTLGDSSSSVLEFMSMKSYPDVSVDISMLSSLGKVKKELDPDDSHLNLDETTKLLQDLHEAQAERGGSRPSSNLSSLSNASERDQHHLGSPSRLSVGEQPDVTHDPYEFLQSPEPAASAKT

[10] = target: Chromatin remodeling regulator CECR2 (Homo sapiens, UniProt Q9BXF3); experiment: Inhibition of human partial length CECR2 (P423 to D543 residues) expressed in bacterial expression system by BROMOscan assay
Sequence of Chromatin remodeling regulator CECR2 (Q9BXF3 whole entry, the tested form may be a part): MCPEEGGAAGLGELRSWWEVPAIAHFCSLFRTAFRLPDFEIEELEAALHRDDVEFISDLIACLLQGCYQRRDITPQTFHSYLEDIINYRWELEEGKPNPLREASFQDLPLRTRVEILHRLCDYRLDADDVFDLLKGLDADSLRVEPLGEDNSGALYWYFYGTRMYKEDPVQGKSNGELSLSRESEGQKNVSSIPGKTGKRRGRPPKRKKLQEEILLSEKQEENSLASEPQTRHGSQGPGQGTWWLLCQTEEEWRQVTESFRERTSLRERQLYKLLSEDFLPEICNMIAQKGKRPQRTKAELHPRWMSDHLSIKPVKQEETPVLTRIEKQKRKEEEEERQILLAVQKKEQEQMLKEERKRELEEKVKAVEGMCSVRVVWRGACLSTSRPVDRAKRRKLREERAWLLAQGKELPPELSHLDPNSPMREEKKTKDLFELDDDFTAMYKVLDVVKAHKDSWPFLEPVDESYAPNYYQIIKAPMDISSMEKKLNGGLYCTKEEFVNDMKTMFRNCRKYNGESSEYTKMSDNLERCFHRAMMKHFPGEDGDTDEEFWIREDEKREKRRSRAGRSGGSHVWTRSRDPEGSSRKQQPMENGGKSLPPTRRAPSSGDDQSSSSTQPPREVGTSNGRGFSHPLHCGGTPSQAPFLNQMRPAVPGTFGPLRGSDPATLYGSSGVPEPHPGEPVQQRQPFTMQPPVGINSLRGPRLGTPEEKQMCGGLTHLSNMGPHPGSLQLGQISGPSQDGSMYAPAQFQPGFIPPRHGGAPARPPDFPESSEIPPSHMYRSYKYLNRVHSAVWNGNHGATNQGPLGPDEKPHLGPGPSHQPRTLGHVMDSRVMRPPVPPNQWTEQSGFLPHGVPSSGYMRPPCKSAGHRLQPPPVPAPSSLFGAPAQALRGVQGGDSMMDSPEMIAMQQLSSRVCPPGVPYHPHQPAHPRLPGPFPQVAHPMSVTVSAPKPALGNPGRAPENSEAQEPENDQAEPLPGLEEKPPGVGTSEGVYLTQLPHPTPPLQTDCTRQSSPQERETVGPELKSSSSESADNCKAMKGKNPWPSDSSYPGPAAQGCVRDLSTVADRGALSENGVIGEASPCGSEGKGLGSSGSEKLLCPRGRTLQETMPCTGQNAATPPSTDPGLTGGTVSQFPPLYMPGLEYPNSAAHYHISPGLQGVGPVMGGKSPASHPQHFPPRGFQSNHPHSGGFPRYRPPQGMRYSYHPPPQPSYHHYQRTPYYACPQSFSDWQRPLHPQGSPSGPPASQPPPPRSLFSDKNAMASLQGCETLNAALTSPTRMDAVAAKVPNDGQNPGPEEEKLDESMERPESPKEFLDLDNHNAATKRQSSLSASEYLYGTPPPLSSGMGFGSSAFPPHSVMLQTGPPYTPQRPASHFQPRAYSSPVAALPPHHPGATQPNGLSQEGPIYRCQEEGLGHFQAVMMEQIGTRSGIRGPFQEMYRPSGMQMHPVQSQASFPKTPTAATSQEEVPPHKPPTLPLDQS

[11] = target: T1, Transcription initiation factor TFIID subunit 1; experiment: Displacement of Halo-tagged histone H4 from NanoLuc-tagged TAF1 bromodomain 2 (unknown origin) expressed in HEK293 cells measured after 4 to 6 hrs by NanoBRET assay; format: cell-based
[12] = target: T4, ATPase family AAA domain-containing protein 2 (Homo sapiens) (UniProt Q6PL18); experiment: Inhibition of human partial length ATAD2 (Q981 to R1108 residues) expressed in bacterial expression system at 10 uM measured by BROMOscan assay
T4 sequence (whole entry): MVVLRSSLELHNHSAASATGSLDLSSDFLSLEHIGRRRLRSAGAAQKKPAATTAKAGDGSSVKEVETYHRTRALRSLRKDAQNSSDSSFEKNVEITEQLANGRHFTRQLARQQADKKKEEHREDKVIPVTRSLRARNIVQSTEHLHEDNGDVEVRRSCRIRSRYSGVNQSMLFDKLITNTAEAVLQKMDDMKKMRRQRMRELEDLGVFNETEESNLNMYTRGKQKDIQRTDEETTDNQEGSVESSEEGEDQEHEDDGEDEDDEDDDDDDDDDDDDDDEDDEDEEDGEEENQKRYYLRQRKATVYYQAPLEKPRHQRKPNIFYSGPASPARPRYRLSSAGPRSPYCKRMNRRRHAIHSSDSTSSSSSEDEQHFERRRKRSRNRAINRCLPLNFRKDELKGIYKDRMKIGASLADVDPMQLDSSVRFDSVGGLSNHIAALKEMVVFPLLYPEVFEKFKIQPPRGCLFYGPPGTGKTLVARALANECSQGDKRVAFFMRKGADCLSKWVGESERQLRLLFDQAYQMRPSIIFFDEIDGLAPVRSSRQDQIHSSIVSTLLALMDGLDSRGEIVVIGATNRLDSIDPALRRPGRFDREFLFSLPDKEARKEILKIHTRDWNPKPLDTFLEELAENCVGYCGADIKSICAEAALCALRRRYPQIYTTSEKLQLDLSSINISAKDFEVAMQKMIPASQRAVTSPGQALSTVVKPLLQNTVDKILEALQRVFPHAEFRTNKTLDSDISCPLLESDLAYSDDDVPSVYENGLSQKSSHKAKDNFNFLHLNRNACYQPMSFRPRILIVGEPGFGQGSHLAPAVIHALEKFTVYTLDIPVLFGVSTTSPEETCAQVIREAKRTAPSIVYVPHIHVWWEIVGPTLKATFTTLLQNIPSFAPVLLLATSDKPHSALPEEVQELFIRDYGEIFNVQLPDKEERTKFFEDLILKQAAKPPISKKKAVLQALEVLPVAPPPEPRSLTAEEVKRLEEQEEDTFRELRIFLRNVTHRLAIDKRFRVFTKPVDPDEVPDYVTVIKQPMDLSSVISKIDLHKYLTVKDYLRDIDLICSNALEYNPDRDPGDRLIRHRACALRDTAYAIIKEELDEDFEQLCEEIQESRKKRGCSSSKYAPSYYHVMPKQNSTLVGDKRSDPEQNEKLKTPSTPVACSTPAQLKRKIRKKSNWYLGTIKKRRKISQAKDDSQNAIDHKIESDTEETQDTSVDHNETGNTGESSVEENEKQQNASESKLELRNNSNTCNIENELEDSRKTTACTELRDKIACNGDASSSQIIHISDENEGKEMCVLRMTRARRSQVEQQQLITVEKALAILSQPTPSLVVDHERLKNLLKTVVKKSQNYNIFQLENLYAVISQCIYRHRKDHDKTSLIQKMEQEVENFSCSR

[13] = target: T2, Bromodomain-containing protein 4; experiment: Inhibition of BRD4 BD2 (unknown origin) measured by TR-FRET assay
[14] = Solubility of the compound by CAD method; format: physicochemical

T1 sequence (P21675 whole entry): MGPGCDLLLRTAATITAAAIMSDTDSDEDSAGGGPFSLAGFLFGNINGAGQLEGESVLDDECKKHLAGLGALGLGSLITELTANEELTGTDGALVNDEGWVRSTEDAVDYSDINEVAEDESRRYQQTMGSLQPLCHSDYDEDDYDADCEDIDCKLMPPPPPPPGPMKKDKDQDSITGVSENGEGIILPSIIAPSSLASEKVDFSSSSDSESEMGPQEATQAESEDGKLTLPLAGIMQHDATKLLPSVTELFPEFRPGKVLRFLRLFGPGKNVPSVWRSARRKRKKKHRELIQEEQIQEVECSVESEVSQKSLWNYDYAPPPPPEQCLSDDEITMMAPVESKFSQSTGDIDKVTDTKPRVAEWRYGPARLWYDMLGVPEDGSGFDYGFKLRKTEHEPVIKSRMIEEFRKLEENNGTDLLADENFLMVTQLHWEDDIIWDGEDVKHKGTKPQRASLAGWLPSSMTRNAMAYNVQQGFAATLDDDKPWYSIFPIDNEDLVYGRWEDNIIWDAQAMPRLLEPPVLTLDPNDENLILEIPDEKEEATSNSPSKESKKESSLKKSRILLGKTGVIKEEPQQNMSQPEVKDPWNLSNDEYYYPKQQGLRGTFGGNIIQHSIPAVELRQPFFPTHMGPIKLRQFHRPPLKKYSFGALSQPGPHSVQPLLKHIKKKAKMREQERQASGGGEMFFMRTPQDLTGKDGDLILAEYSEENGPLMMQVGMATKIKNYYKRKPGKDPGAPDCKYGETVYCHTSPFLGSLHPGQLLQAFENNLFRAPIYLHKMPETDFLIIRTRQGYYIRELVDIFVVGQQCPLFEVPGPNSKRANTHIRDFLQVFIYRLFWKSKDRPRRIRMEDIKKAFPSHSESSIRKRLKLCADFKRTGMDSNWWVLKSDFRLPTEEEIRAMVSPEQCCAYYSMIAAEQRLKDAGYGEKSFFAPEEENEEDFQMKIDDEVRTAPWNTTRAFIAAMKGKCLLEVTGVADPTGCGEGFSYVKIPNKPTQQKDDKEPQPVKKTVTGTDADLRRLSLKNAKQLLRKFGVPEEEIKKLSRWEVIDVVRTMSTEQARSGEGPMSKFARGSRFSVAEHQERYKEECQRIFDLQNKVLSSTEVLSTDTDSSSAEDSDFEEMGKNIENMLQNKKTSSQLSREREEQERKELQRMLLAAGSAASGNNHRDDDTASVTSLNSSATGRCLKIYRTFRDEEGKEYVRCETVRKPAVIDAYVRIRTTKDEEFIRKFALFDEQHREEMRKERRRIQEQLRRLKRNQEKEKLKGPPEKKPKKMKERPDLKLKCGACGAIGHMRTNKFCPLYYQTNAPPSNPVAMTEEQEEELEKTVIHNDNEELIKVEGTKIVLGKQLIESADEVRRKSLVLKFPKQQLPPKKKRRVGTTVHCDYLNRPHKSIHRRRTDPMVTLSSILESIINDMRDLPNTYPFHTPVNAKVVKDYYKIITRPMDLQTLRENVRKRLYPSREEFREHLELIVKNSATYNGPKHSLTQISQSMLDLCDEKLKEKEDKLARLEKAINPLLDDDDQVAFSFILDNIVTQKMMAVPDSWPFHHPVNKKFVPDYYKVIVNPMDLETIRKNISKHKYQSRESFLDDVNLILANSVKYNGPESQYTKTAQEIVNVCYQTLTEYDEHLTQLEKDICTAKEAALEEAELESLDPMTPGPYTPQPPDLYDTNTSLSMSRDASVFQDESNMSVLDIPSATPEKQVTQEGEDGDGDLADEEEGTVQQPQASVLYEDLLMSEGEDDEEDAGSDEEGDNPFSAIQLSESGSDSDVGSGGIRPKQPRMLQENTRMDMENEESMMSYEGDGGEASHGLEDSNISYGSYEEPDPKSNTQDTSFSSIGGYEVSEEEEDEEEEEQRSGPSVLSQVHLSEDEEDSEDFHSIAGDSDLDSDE

Compound: Cc1cc2c(C3=CCOCC3)cnc(NC3CCN(C(=O)C(F)(F)CN)CC3)c2[nH]c1=O
- IC50 [1]: 39.8 nM
- chromatographic logD [2]: 2.7
- IC50 [3]: > 20000 nM
- Papp [4]: 6.2 ×10⁻⁶ cm/s
- Ki [5]: 0.794 nM
- Ki [6]: > 5010 nM
- CLint scaled [7]: 20.4 mL/min/kg
- Ki [8]: 794 nM
- Ki [9]: 39.8 nM
- Ki [10]: 1000 nM
- IC50 [11]: > 10000 nM
- inhibition [12]: 24%
- IC50 [13]: 5010 nM
- solubility [14]: 24 µg/mL (≈ 53.6 µM)
